We go through two molecules from publication PMC6380468, “Investigations on small molecule inhibitors targeting the histone H3K4 tri-methyllysine binding PHD-finger of JmjC histone demethylases” (Bioorganic & Medicinal Chemistry, 2018).

Where only a bound is given, the exact number is not on record here.

What all share (type): binding
One assay has as its target T1, KDM7C(PHD) (Homo sapiens, UniProt O75151).
T1 construct: made in house
T1 sequence (O75151 5-56 limits assumed): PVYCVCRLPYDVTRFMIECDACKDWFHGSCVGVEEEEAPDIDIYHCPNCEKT
The assay can be described thus: AlphaScreen displacement of H3K4me3-Bn from His-KDM7C(PHD). To be noted: AlphaScreen; 25 nM KDM7C(PHD) and 6.25 nM peptide; n ≥ 3; read-out: IC50 for displacement of H3K4me3-Bn from His-KDM7C(PHD). As to the method:
(§1) For peptide displacement assays, 5 µL of the inhibitor dilution series (at a concentration of 4% DMSO in AlphaScreen assay buffer) was pre-incubated with 5 µL of the protein at RT for 15 minutes. Peptide solution (5 µL) was added and incubated for 30 minutes at RT, followed by the addition of 5 µL of a mixture of AlphaScreen Streptavidin donor beads and Nickel Chelate acceptor beads in AlphaScreen assay buffer (20 µg/mL final). The contents were incubated for 60-120 minutes at RT in the dark, followed by measurement of luminescence on a BMG Labtech Pherastar plate reader (Software Ver. 5.30 R3, Firmware Ver. 1.21). The data was plotted in Prism Ver 7.01 (GraphPad Software, Inc.) and fitted to a Log(inhibitor) v/s response – variable slope model in order to obtain IC50 values.

A further assay deals with T2, His-KDM5A(PHD3) (Homo sapiens, UniProt P29375).
T2 construct: KDM5A(PHD3) (1542 – 1660), encoded by a pGTLV2 vector; made in house; host or cells: E. coli Rosetta 2(DE3)pLysS
T2 sequence (P29375 1542-1660): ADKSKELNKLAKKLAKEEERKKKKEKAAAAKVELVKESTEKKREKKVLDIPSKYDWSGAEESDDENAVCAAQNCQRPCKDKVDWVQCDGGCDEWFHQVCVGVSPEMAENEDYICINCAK
The assay can be described thus: AlphaScreen displacement assay, H3K4me3-Bn from His-KDM5A(PHD3). The settings on record: AlphaScreen; 25 nM protein and 25 nM peptide; average ± StdDev, n ≥ 3; NM = not measurable within the solubility range; read-out: IC50 for displacement of H3K4me3-Bn from His-KDM5A(PHD3). As to the method: AlphaScreen is a homogenous bead-based assay used to study protein-protein interactions.[28] […] AlphaScreen beads were then added and incubated for 1 h. Changes in the AlphaScreen signals with increasing inhibitor concentrations were then measured to quantify the level of KDM5A(PHD3) and H3K4me3 binding, and IC50 values were determined.
His-tagged PHD finger constructs and H3K4me3-Bn peptides were diluted into AlphaScreen assay buffer (50mM HEPES, 150mM NaCl, 0.1% BSA, 0.01% Tween20, pH 7.5). An 8-point 1:2 dilution series was made for both protein and peptide. With a multichannel pipette (LTS P10), 5 µL protein was dispensed into 8 columns of a 384-well plate, followed by 5 µL of 4% DMSO in AlphaScreen assay buffer. The mixture was incubated at room temperature for 15 minutes, followed by dispensing 5 µL peptide across 8 rows of the 384-well plate, forming a cross-gradient of protein and peptide. The contents were incubated for 30 minutes at room temperature, followed by the addition of 5 µL of a mixture of AlphaScreen Streptavidin donor beads and Nickel Chelate acceptor beads in AlphaScreen assay buffer (20 µg/mL final). The samples were incubated for 60-120 minutes at room temperature in the dark, followed by measurement of luminescence on a BMG Labtech Pherastar plate reader (Software Ver. 5.30 R3, Firmware Ver. 1.21). The data was plotted in Prism Ver 7.01 (GraphPad Software, Inc.) and fitted to a linear model in order to determine the optimal concentration of protein and peptide within the linear signal range for each reader domain.
as §1

For a further assay, the target named is T3, KDM7B(PHD) (Homo sapiens, UniProt Q9UPP1).
T3 construct: made in house
T3 sequence (Q9UPP1 41-92 limits assumed): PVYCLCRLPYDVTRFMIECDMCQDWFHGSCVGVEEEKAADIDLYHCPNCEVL
The assay can be described thus: AlphaScreen displacement of H3K4me3-Bn from His-KDM7B(PHD). The settings on record: AlphaScreen; 12.5 nM protein and 12.5 nM peptide; n ≥ 3; read-out: IC50 for displacement of H3K4me3-Bn from His-KDM7B(PHD). As for the experimental part:
as §1

The target of a further assay is T4, KDM7B (PHD-JmjC) (Homo sapiens, UniProt Q9UPP1).
T4 construct: A dual-domain construct of KDM7A/B(PHD-JmjC), consisting of a JmjC domain in addition to the PHD-finger; His; made in house
T4 sequence (Q9UPP1 37-483 limits assumed): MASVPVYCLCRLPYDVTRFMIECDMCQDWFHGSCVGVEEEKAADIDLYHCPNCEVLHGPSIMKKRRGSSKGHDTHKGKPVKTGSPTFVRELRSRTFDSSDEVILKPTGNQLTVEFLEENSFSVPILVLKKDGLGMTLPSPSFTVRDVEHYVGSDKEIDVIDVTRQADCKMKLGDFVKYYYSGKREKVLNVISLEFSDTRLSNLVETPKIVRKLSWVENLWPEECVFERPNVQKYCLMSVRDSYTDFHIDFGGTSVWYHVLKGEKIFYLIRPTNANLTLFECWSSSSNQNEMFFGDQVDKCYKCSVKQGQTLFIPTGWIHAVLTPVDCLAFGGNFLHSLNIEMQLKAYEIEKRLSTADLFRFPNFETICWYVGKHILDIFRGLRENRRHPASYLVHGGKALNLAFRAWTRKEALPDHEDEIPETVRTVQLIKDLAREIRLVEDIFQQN
The assay can be described thus: AlphaScreen displacement of H3K4me3-Bn from His-KDM7B(PHD-JmjC). To be noted: AlphaScreen displacement of H3K4me3-Bn; n = 3; NI = No inhibition seen at 100 μM; read-out: IC50 KDM7B (PHD-JmjC) (Displacement). As to the method:
(§2) A dual-domain construct of KDM7A/B(PHD-JmjC), consisting of a JmjC domain in addition to the PHD-finger (Fig. 1B), was used to test for allosteric inhibition through binding at the PHD-finger.
as §1

The target of the next assay is KDM7A (PHD-JmjC) (Homo sapiens, UniProt Q6ZMT4). The assay can be described thus: AlphaScreen displacement of H3K4me3-Bn from His-KDM7A(PHD-JmjC). To be noted: AlphaScreen displacement of H3K4me3-Bn; n = 3; NI = No inhibition seen at 100 μM; read-out: IC50 KDM7A (PHD-JmjC) (Displacement). As for the experimental part:
as §2, §1

Chain of KDM7A (PHD-JmjC) (Q6ZMT4 37-386 limits assumed): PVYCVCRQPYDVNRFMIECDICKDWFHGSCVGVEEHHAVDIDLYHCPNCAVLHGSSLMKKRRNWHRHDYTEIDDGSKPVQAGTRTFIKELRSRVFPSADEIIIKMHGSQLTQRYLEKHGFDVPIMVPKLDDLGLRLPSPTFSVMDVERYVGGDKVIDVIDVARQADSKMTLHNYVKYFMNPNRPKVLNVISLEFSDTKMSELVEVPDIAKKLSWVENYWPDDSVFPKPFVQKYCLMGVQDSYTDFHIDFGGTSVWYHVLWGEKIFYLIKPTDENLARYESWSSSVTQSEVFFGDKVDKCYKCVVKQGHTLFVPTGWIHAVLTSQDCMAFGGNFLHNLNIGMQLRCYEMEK

On to `CCCCc1oc2ccccc2c1C(=O)c1ccc(OCCCN(C)C)cc1` [Compound 1a, (2-Butylbenzofuran-3-yl)(4-(3-(dimethylamino)propoxy)phenyl)methanone], for which the half-inhibitory concentration (IC50) was 158 ± 30 µM on KDM7C(PHD); 166 ± 20 µM on His-KDM5A(PHD3); 397 ± 77 µM on KDM7B(PHD); more than 100 µM on KDM7B (PHD-JmjC); 295 ± 48 µM at KDM7A (PHD-JmjC).
As to `CCCCc1oc2ccccc2c1C(=O)c1ccc(OCCC[N+](C)(C)C)cc1.[I-]` [Compound 2a, 3-(4-(2-Butylbenzofuran-3-carbonyl)phenoxy)-N,N,N-trimethylpropan-1-aminium iodide], the half-inhibitory concentration (IC50) at KDM7C(PHD) was 579 ± 87 µM; on His-KDM5A(PHD3), 340 ± 44 µM; on KDM7B(PHD), 355 ± 39 µM; on KDM7B (PHD-JmjC), 120 ± 32 µM; on KDM7A (PHD-JmjC), 149 ± 32 µM.
